Test results published in patent US12653799B2, “Compositions and methods for treating Alzheimer's disease” (ELEANORE BENNETT CHARITABLE TRUST #2, priority 2021, dated 2026).

Experiments:
[1] = tested on: Akt phosphorylation in Aβ42-expressing SH-SY5Y cells; test: Akt activation in Aβ42-expressing cells (adenovirus/doxycycline, insulin-stimulated); assay type: cell-based
Method: Adv TetOn and TRE-Aβ42 viruses were described previously (Magrane et al., 2005). […] Insulin (10 or 40 nM) was added in the last 20-30 min before harvest. […] Cell extracts were prepared in lysis buffer [20 mM Tris-HCl (pH 7.5), 150 mM NaCl, 1 mM EDTA, 1 mM Na3VO4, 1% NP-40, 10% Glycerol, 1 mM Na4P2O7, 1 μg/ml Leupeptin, 1 μg/ml Pepstatin A, 1 μg/ml Aprotinin, 0.1 mM phenylmethylsulfonyl fluoride, and protease inhibitor cocktail (Roche)] and were stored at −80° C. until use.
Whole-cell extracts were used directly for western blot analysis (20˜30 μg). Extracts from cultured cells prepared in lysis buffer, were diluted into Laemmli sample buffer, heated (95° C., 10 min), cleared by centrifugation, separated on SDS-PAGE and transferred to PVDF membrane (Immobilon-P; Millipore). Membranes were blocked in TBS containing 0.3% Tween-20 and 5% (wt/vol) non-fat dry milk. After incubation with primary antibodies (18 hr at 4° C. in buffer containing 5% bovine serum albumin (BSA) and 0.05% NaN3), blots were washed and incubated in horseradish peroxidase (HRP)-conjugated secondary antibodies (1:2000 dilution; Cell Signaling). Signals were detected using ECL reagents and quantified using a Kodak Image Station 4000R.
[…]. […] […]. […] […].

[2] = tested on: phospho-GSK (GSK3α/β) in SH-SY5Y cells; test: Cellular phospho-GSK levels in SH-SY5Y cells; assay type: cell-based; conditions: PS48 1 μM 0 to 2 hours; 0-100 μM 20 min
Method: FIG. 8B. PS48 over time (1 μM; 0 to 2 hours) and concentration (20 min; 0-100 μM) was applied to SH-SY5Y cells. No changes in cellular phospho-GSK levels were observed.

mTOR = test: Downstream mTOR phosphorylation; assay type: cell-based; conditions: PS48 1 or 10 μM, 2-4 hrs before doxycycline
[3] = tested on: Akt Ser 473 phosphorylation in N2a cells; test: Insulin sensitization at subthreshold insulin in N2a cells; conditions: insulin 3 nM, 15 min; PS48 0.1 to 100 μM, 2 hrs
[4] = tested on: LTP in rat prefrontal cortical slices; test: Long term potentiation (LTP) in acute prefrontal cortical slices perfused with Aβ42 oligomers; assay type: cell-based; conditions: PS48 10 μM
Method: FIG. 3A. […] LTP was measured as % baseline excitatory postsynaptic potential (EPSP) amplitudes. […] Washout restored LTP (4).
Minor modifications were made to previous published procedures (Marshall et al., 2017; Molina-Luna et al., 2009). Deeply anesthetized rats (pentobarbital, 50 mg/kg) were decapitated, their brains quickly removed and immersed in cold (5-7° C.), oxygenated (95% O2/5% CO2) artificial cerebrospinal fluid (ACSF) containing: 126 mM NaCl, 3 mM KCl, 1.25 mM NaH2PO4, 1 mM MgSO4, 2 mM CaCl2, 26 mM NaHCO3, 10 mM dextrose. […] Control treatment was DMSO in ACSF (artificial cerebrospinal fluid, 20 μM bicuculline). Extracellular postsynaptic field potentials were recorded using an AxoClamp2B amplifier (Axon instruments) and EX1 differential amplifier (Dagan), and digitized at 10 kHz. Data was acquired using Igor Pro (Wave Metrics) and Neuromatic (neuromatic.thinkrandom.com). The stimulus intensity eliciting 50% of the maximum amplitude (˜32 μA) was used for all measurements before and after LTP induction. Baseline amplitudes were recorded for 20-30 minutes using single field stimuli applied every 30 sec to layer IV-V using concentric bipolar electrodes. Following a stable baseline period, LTP was induced by two sets of high-frequency stimulation (HFS) at 100 Hz, 60 μA (twice stimulus intensity), for 1 sec, 20 sec apart. Extracellular postsynaptic field potentials were measured from layer II-III using glass micropipettes filled with 0.9% NaCl. The amplitude rather than the slope of evoked FPs was used as a measure of the population excitatory synaptic response because in the neocortex the initial slope was contaminated by antidromic stimulation. LTP values were expressed as percentage of mean baseline EPSP±SEM. Paired two-tailed t-tests were used for statistical analysis.
LTP was measured as % baseline excitatory postsynaptic potential (EPSP) amplitudes. […] Washout restored LTP.

APP/PS-1 transgenic mice = test: Oral glucose tolerance test in APP/PS-1 transgenic mice; assay type: in vivo, mouse; conditions: TG mice on standard diet, approximately 15.5 months; p<0.05
Method: At the end of phase 2 (active drug) trial, OGTT was administered to the standard diet animals. Animals were approximately 15.5 months at the time of the assay.

[5] = tested on: CREB phosphorylation (pS133) in SH-SY5Y cells; test: Endogenous p-CREB levels in Aβ42-expressing SH-SY5Y cells; conditions: PS48 50 nM; insulin 250 ng/ml 30 min
Method: Whole cell extracts were fractionated by Western and probed with monoclonal anti-pCREB pS133. […] All cells were stimulated with insulin 250 ng/ml for 30 min before harvest.

SMILES: O=C(O)/C=C(/CCc1ccc(Cl)cc1)c1ccccc1 [PS48, (Z)-5-(4-chlorophenyl)-3-phenylpent-2-enoic acid]
- concentration at which the dose-dependent reversal became apparent ([1]; SH-SY5Y and C2C12 myotube cell lines, p<0.01): 100 nM
- reversal of Aβ42 inhibition of insulin-stimulated Akt phosphorylation ([1]; SH-SY5Y and C2C12 myotube data combined, PS48 100 nM and 1 μM (and 10 μM)): significantly reversed the Aβ42 effect
- Akt activation (pT308) in β-amyloid-expressing cells ([1]; SH-SY5Y, PS48 1 μM or insulin 100 nM added 2 hrs before doxycycline, insulin 40 nM 20 min prior to harvest): restored basal Akt activation levels
- basal Akt, compound alone ([1]; SH-SY5Y, PS48 1 μM, no Aβ42 induction): did not over-stimulate
- Akt activity: phosphorylation of GSK3α/β consensus peptide by immunoprecipitated Akt (in vivo-in vitro coupled assay) ([1]; SH-SY5Y, PS48 pre-treatment 50 nM, 2 hrs before doxycycline): prevented the inhibition of peptide phosphorylation by Aβ42
- resting cellular pGSK levels [2]: no effect
- downstream mTOR substrate phosphorylation (mTOR): unchanged
- phosphorylation of Ser 473 at subthreshold insulin [3]: boosting the phosphorylation of Ser 473 to a 20 nM insulin-equivalence response
- LTP (% baseline EPSP amplitude) inhibited by Aβ42 oligomers ([4]; Aβ42 ADDLs 0.5 μM, at the 1-hour mark after Aβ42 application): significantly improved LTP
- LTP (% baseline EPSP amplitude) inhibited by Aβ42 oligomers ([4]; by 3 hours): the beneficial effect had disappeared
- response to glucose challenge (OGTT) (APP/PS-1 transgenic mice): helped to normalize the glucose response
- p-CREB (pS133) levels reduced by Aβ42 expression [5]: mitigated the Aβ42 effect
